Like-named read-outs stand apart in the source and are kept apart here.

This is an account of results in patent US9156796B2, “Benzoimidazole-carboxylic acid amide derivatives as APJ receptor modulators” (SANOFI, priority 2013, dated 2015).

The target of the assay is T1, human apelin receptor (Homo sapiens, UniProt P35414).
T1 construct: expressed in transfected cells
T1 sequence (P35414 1-380): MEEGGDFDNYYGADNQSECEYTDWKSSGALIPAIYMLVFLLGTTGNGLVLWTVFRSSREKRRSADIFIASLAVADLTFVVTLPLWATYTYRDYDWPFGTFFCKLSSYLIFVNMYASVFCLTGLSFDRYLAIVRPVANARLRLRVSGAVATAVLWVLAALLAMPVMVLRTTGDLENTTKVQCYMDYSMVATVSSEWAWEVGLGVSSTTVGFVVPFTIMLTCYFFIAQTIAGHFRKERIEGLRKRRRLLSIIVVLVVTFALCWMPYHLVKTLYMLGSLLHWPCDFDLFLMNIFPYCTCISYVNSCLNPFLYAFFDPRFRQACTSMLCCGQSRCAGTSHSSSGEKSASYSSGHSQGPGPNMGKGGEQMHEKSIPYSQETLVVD
The experiment in a line: Determination of agonism on the human apelin receptor by a calcium fluorescence assay (FLIPR). Type of assay: cell-based. To be noted: HEK293 cells stably transfected with human apelin receptor and Giaq protein, Fluo-4 calcium fluorescence. In short, it runs like this: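 HEK293 cells stably co-expressing human apelin receptor and promiscuous Giaq, loaded 1 h at 37 °C with Fluo-4 (4 μM) in probenecid-containing Hepes buffer, pH 7.4. Compounds, at least 7 concentrations in triplicate, added in FLIPR Tetra; peak calcium fluorescence normalized to 1 μM apelin-13 as 100% to derive EC50.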

Turning to `CCC(CC)n1c(Cc2cccs2)nc2cc(C(=O)N[C@@H](CC(C)C)C(=O)N(C)Cc3ccccc3OC)ccc21` [Example 256, 1-(1-Ethyl-propyl)-2-thiophen-2-ylmethyl-1H-benzoimidazole-5-carboxylic acid {(S)-1-[(2-methoxy-benzyl)-methyl-carbamoyl]-3-methyl-butyl}-amide], the half-maximal effective concentration (EC50) (commonly the concentration needed to bring the measured effect to its halfway point) (read-out: EC50 (APJ agonism)) was found to be 5920 nM.

On to `CCC(CC)n1c(Cc2cccs2)nc2cc(C(=O)N[C@@H](CC(C)C)C(=O)NCC3CCN(CCOC)C3)ccc21` (stereo partly drawn) [Example 305, 1-(1-Ethyl-propyl)-2-thiophen-2-ylmethyl-1H-benzoimidazole-5-carboxylic acid ((S)-1-{[1-(2-methoxy-ethyl)-pyrrolidin-3-ylmethyl]-carbamoyl}-3-methyl-butyl)-amide], for which the EC50 (read-out: EC50 (APJ agonism)) is 319 nM. In the case of `CCCCC(CC(=O)O)NC(=O)c1ccc2c(c1)nc(Cc1cccs1)n2[C@@H]1CCCC[C@H]1C` (single isomer, unassigned) [Example 461], where the note is “read-out: EC50 (APJ agonism)”, the EC50 came to 3430 nM. Same read-out and setting: to `CCCC[C@H](NC(=O)c1ccc2c(c1)nc(Cc1cccs1)n2C1CCCCC1C)C(=O)O` (single isomer, unassigned) [Example 421] belongs 20000 nM; to `CCC(CC)n1c(Cc2cccs2)nc2cc(C(=O)N[C@@H](CC(C)C)C(=O)NCCN3CCOCC3)ccc21` [Example 231, 1-(1-Ethyl-propyl)-2-thiophen-2-ylmethyl-1H-benzoimidazole-5-carboxylic acid [(S)-3-methyl-1-(2-morpholin-4-yl-ethylcarbamoyl)-butyl]-amide], 525 nM; to `CCC(CC)n1c(Cc2cccs2)nc2cc(C(=O)NC3(C(=O)O)CCCCCC3)ccc21` [Example 1, 1-{[1-(1-Ethyl-propyl)-2-thiophen-2-ylmethyl-1H-benzoimidazole-5-carbonyl]-amino}-cycloheptanecarboxylic acid], 359 nM. The same measure, in the same setting: to `CCC(CC)n1c(Cc2cccs2)nc2cc(C(=O)N[C@@H](CC(C)C)C(=O)N3CCN(c4ccccc4)CC3)ccc21` [Example 235, 1-(1-Ethyl-propyl)-2-thiophen-2-ylmethyl-1H-benzoimidazole-5-carboxylic acid [(S)-3-methyl-1-(4-phenyl-piperazine-1-carbonyl)-butyl]-amide] belongs 1300 nM; to `CCC[C@H](CO)NC(=O)c1ccc2c(c1)nc(CC1CCCC1)n2C(CC)CC` [Example 185, 2-Cyclopentylmethyl-1-(1-ethyl-propyl)-1H-benzoimidazole-5-carboxylic acid ((R)-1-hydroxymethyl-butyl)-amide], 14100 nM. For the compound `CCC(CC)n1c(Cc2cccs2)nc2cc(C(=O)N[C@H](COC)CC(C)C)ccc21` [Example 207, 1-(1-Ethyl-propyl)-2-thiophen-2-ylmethyl-1H-benzoimidazole-5-carboxylic acid ((S)-1-methoxymethyl-3-methyl-butyl)-amide], for the setting “EC50 (APJ agonism)”, the EC50 was 554 nM.

On to `CC(C)C[C@@H](CO)NC(=O)c1ccc2c(c1)nc(Cc1cccs1)n2C1CCCCC1C` (stereo partly drawn) [Example 211, 1-(2-Methyl-cyclohexyl)-2-thiophen-2-ylmethyl-1H-benzoimidazole-5-carboxylic acid ((S)-1-hydroxymethyl-3-methyl-butyl)-amide], for which, where the note is “read-out: EC50 (APJ agonism)”, the EC50 came to 705 nM. On the same count and under the same terms, to `CCC(CC)n1c(Cc2cccs2)nc2cc(C(=O)N[C@H](CC(=O)O)CC3CCCC3)ccc21` [Example 60, (S)-4-Cyclopentyl-3-{[1-(1-ethyl-propyl)-2-thiophen-2-ylmethyl-1H-benzoimidazole-5-carbonyl]-amino}-butyric acid] belongs 46 nM; to `C[C@@H]1CCCC[C@H]1n1c(Cc2cccs2)nc2cc(C(=O)NC(CC(=O)O)CC3CCCCC3)ccc21` (single isomer, unassigned) [Example 457], 1460 nM.

Take `CCC(CC)n1c(Cc2cccs2)nc2cc(C(=O)N[C@@H](CC(C)C)C(=O)NCC3CCCCN3C)ccc21` (stereo partly drawn) [Example 257, 1-(1-Ethyl-propyl)-2-thiophen-2-ylmethyl-1H-benzoimidazole-5-carboxylic acid {(S)-3-methyl-1-[(1-methyl-piperidin-2-ylmethyl)-carbamoyl]-butyl}-amide]: the EC50 (read-out: EC50 (APJ agonism)) stood at 425 nM. For the compound `CCC(CC)n1c(Cc2cccs2)nc2cc(C(=O)N[C@@H](CC(C)C)C(=O)N(CCOC)CCOC)ccc21` [Example 363, 1-(1-Ethyl-propyl)-2-thiophen-2-ylmethyl-1H-benzoimidazole-5-carboxylic acid {(S)-1-[bis-(2-methoxy-ethyl)-carbamoyl]-3-methyl-butyl}-amide], the EC50 (read-out: EC50 (APJ agonism)) is 1720 nM. Still for that read-out and setting: to `CCC(C)n1c(CC2CCCC2)nc2cc(C(=O)N[C@@H](CC(C)C)C(=O)O)ccc21` (stereo partly drawn) [Example 149, (S)-2-[(1-sec-Butyl-2-cyclopentylmethyl-1H-benzoimidazole-5-carbonyl)-amino]-4-methyl-pentanoic acid] belongs 27000 nM; to `CC(C)C[C@@H](CC(=O)O)NC(=O)c1ccc2c(c1)nc(Cc1cccs1)n2C1CCCC1C` (stereo partly drawn) [Example 104, (S)-5-Methyl-3-{[1-(2-methyl-cyclopentyl)-2-thiophen-2-ylmethyl-1H-benzoimidazole-5-carbonyl]-amino}-hexanoic acid], 479 nM; to `C[C@@H]1CCCC[C@H]1n1c(Cc2cccs2)nc2cc(C(=O)NC(CC(=O)O)C3CCCCC3)ccc21` (stereo partly drawn) [Example 57, 3-Cyclohexyl-3-{[1-((1R,2R)-2-methyl-cyclohexyl)-2-thiophen-2-ylmethyl-1H-benzoimidazole-5-carbonyl]-amino}-propionic acid], 475 nM.

Regarding `CCC(CC)NC(=O)[C@H](CC(C)C)NC(=O)c1ccc2c(c1)nc(Cc1cccs1)n2C(CC)CC` [Example 226, 1-(1-Ethyl-propyl)-2-thiophen-2-ylmethyl-1H-benzoimidazole-5-carboxylic acid [(S)-1-(1-ethyl-propylcarbamoyl)-3-methyl-butyl]-amide], the EC50 (read-out: EC50 (APJ agonism)) is 4870 nM. On the same count and under the same terms, to `CCC(CC)n1c(Cc2cccs2)nc2cc(C(=O)N[C@@H](CC(C)C)C(=O)NCC3CCCN(CC)C3)ccc21` (stereo partly drawn) [Example 303, 1-(1-Ethyl-propyl)-2-thiophen-2-ylmethyl-1H-benzoimidazole-5-carboxylic acid {(S)-1-[(1-ethyl-piperidin-3-ylmethyl)-carbamoyl]-3-methyl-butyl}-amide] belongs 214 nM. The same measure, in the same setting: next, `CCC(CC)n1c(Cc2cscn2)nc2cc(C(=O)N[C@H](COC)CC(C)C)ccc21` [Example 206, 1-(1-Ethyl-propyl)-2-thiazol-4-ylmethyl-1H-benzoimidazole-5-carboxylic acid ((S)-1-methoxymethyl-3-methyl-butyl)-amide]: 2300 nM; `CCC(CC)n1c(Cc2cccs2)nc2cc(C(=O)N[C@@H](CO)CC(C)C)ccc21` [Example 191, 1-(1-Ethyl-propyl)-2-thiophen-2-ylmethyl-1H-benzoimidazole-5-carboxylic acid ((R)-1-hydroxymethyl-3-methyl-butyl)-amide]: 6300 nM; `CCC(CC)n1c(Cc2cccs2)nc2cc(C(=O)N[C@@H](CC(C)C)C(=O)N3CC[C@H](N(C)C)C3)ccc21` [Example 322, 1-(1-Ethyl-propyl)-2-thiophen-2-ylmethyl-1H-benzoimidazole-5-carboxylic acid [(S)-1-((S)-3-dimethylamino-pyrrolidine-1-carbonyl)-3-methyl-butyl]-amide]: 244 nM. Turning to `CCC(CC)n1c(Cc2cccs2)nc2cc(C(=O)N[C@@H](CC(C)C)C(=O)N3CCCN(Cc4c(F)cccc4Cl)CC3)ccc21` [Example 274, 1-(1-Ethyl-propyl)-2-thiophen-2-ylmethyl-1H-benzoimidazole-5-carboxylic acid {(S)-1-[4-(2-chloro-6-fluoro-benzyl)-[1,4]diazepane-1-carbonyl]-3-methyl-butyl}-amide], under “read-out: EC50 (APJ agonism)”, the EC50 stood at 12600 nM.

Consider `CCC(CC)n1c(Cc2cccs2)nc2cc(C(=O)N[C@@H](CC(C)C)C(=O)NC(C)CCN3CCOCC3)ccc21` (stereo partly drawn) [Example 306, 1-(1-Ethyl-propyl)-2-thiophen-2-ylmethyl-1H-benzoimidazole-5-carboxylic acid [(S)-3-methyl-1-(1-methyl-3-morpholin-4-yl-propylcarbamoyl)-butyl]-amide], for which the EC50 (read-out: EC50 (APJ agonism)) is 1260 nM. As to `CCC(CC)n1c(Cc2cccs2)nc2cc(C(=O)N[C@@H](CC(C)C)C(=O)N3CC4CC3CN4c3cccc(F)c3)ccc21` (stereo partly drawn) [Example 326, 1-(1-Ethyl-propyl)-2-thiophen-2-ylmethyl-1H-benzoimidazole-5-carboxylic acid {(S)-1-[5-(3-fluoro-phenyl)-2,5-diaza-bicyclo[2.2.1]heptane-2-carbonyl]-3-methyl-butyl}-amide], the half-maximal effective concentration (EC50) (read-out: EC50 (APJ agonism)) worked out at 16400 nM.

In the case of `CCC(CC)n1c(Cc2cccs2)nc2cc(C(=O)N[C@@H](CC(C)C)C(=O)N3CC4CC3CN4Cc3ccc(C(F)(F)F)cc3)ccc21` (stereo partly drawn) [Example 350, 1-(1-Ethyl-propyl)-2-thiophen-2-ylmethyl-1H-benzoimidazole-5-carboxylic acid {(S)-3-methyl-1-[5-(4-trifluoromethyl-benzyl)-2,5-diaza-bicyclo[2.2.1]heptane-2-carbonyl]-butyl}-amide], the 50% effective concentration (EC50) (read-out: EC50 (APJ agonism)) worked out at 29100 nM.

Consider `CCC(CC)n1c(Cc2cccs2)nc2cc(C(=O)N[C@@H](Cc3ccc(F)cc3)C(=O)O)ccc21` [Example 19, (S)-2-{[1-(1-Ethyl-propyl)-2-thiophen-2-ylmethyl-1H-benzoimidazole-5-carbonyl]-amino}-3-(4-fluoro-phenyl)-propionic acid], for which the EC50 (read-out: EC50 (APJ agonism)) worked out at 5030 nM.
